Results as given in patent publication US20050130968A1, “Fungicidal 4-(2-aminopyridin-4-yl)-N-phenyl-1,3,5-triazin-2-amine derivatives” (priority 2003, published 2005).

Tests used:
Cochliobolus sativus = assay: Spot Blotch of Wheat 1-day protectant test (COCHSA); format: in vivo; settings: Bipolaris sorokiniana, 24 h; one-day protectant test, 200 ppm application rate, wheat plants (variety Yuma); read-out: COCHSA control of disease
Description: The technical compounds were formulated at 200 ppm in 10 vol. acetone plus 90 vol. Triton X water (deionized water 99.99 wt. % +0.01 wt. Triton X100), giving a “formulated test compound.” The compounds were tested for ability to control plant diseases at the whole plant level in a 1-day protectant test (IDP). Formulated test compounds were applied to plants using a turn table sprayer fitted with two opposing air atomization nozzles which delivered approximately 1500 L/ha of spray volume. Plants were inoculated with spores of the fungus the next day, then incubated in an environment conducive to disease development. Disease severity was evaluated 4 to 19 days later, depending on the speed of disease development. […] Each pot contained 3-8 seedlings. These plants were sprayed until wet with the formulated test compound at a rate of 200 ppm. On the following day, the leaves were inoculated with an aqueous spore suspension of Cochliobolus sativus and the plants were kept in high humidity for one to two days to permit spores to germinate and infect the leaf. The plants were then transferred to a greenhouse until disease developed on untreated control plants. The following table presents the activity of typical compounds of the present invention when evaluated in these experiments. The effectiveness of the test compounds in controlling disease was determined by assessing the severity of disease on treated plants, then converting the severity to percent control based on the level of disease on untreated, inoculated plants.

Septoria tritici = assay: Speckled Leaf Blotch of Wheat 1-day protectant test (SEPTTR); format: in vivo; settings: Zymoseptoria tritici, topical, 24 h; one-day protectant test, 200 ppm application rate, wheat plants (variety Monon); read-out: SEPTTR control of disease
Description: The technical compounds were formulated at 200 ppm in 10 vol. acetone plus 90 vol. Triton X water (deionized water 99.99 wt. % +0.01 wt. Triton X100), giving a “formulated test compound.” The compounds were tested for ability to control plant diseases at the whole plant level in a 1-day protectant test (IDP). Formulated test compounds were applied to plants using a turn table sprayer fitted with two opposing air atomization nozzles which delivered approximately 1500 L/ha of spray volume. Plants were inoculated with spores of the fungus the next day, then incubated in an environment conducive to disease development. Disease severity was evaluated 4 to 19 days later, depending on the speed of disease development. Speckled Leaf Blotch of Wheat (Mycosphaerella graminicola=Septoria tritici; Bayer code […]): Wheat plants (variety Monon) were grown from seed in a greenhouse in 50% pasteurized soil/50% soil-less mix until the first true leaf was fully expanded, with 3-8 seedlings per pot. These plants were sprayed until wet with the formulated test compound at a rate of 200 ppm. On the following day, the leaves were inoculated with an aqueous spore suspension of Septoria tritici and the plants were kept in high humidity (one day in a dark dew chamber followed by four to seven days in a lighted dew chamber) to permit spores to germinate and infect the leaf. The plants were then transferred to a greenhouse until disease developed on untreated control plants. The following table presents the activity of typical compounds of the present invention when evaluated in these experiments. The effectiveness of the test compounds in controlling disease was determined by assessing the severity of disease on treated plants, then converting the severity to percent control based on the level of disease on untreated, inoculated plants.

Pyricularia oryzae = assay: whole plant or invertebrate; format: in vivo; settings: topical, 24 h, read-out: PYRIOR control of disease
Leptosphaeria nodorum = assay: Glume Blotch of Wheat 1-day protectant test (LEPTNO); format: in vivo; settings: Parastagonospora nodorum, topical, 24 h; one-day protectant test, 200 ppm application rate, wheat plants (variety Yuma); read-out: LEPTINO control of disease
Description: The technical compounds were formulated at 200 ppm in 10 vol. acetone plus 90 vol. Triton X water (deionized water 99.99 wt. % +0.01 wt. Triton X100), giving a “formulated test compound.” The compounds were tested for ability to control plant diseases at the whole plant level in a 1-day protectant test (IDP). Formulated test compounds were applied to plants using a turn table sprayer fitted with two opposing air atomization nozzles which delivered approximately 1500 L/ha of spray volume. Plants were inoculated with spores of the fungus the next day, then incubated in an environment conducive to disease development. Disease severity was evaluated 4 to 19 days later, depending on the speed of disease development. Glume Blotch of Wheat (causal agent Leptosphaeria nodorum=Stagnospora nodorum; Bayer code […]): Wheat plants (variety Yuma) were grown from seed in a 50% pasteurized soil/50% soil-less mix until the seedlings had fully expanded first leaf. Each pot contains 3-20 seedlings. These plants were sprayed until wet with the formulated test compound at a rate of 200 ppm. On the following day, the leaves were inoculated with an aqueous spore suspension of Leptosphaeria nodorum and the plants were kept in high humidity (one day in a dark dew chamber followed by four to seven days in a lighted dew chamber) to permit spores to germinate and infect the leaf. The plants were then transferred to a greenhouse until disease developed on untreated control plants. The following table presents the activity of typical compounds of the present invention when evaluated in these experiments. The effectiveness of the test compounds in controlling disease was determined by assessing the severity of disease on treated plants, then converting the severity to percent control based on the level of disease on untreated, inoculated plants.

Colletotricum lagenarium = assay: Cucumber Anthracnose 1-day protectant test (COLLLA); format: in vivo; settings: Cucumis sativus, topical, 24 h; one-day protectant test, 200 ppm application rate, cucumber plants (variety Bush Champion); read-out: COLLLA control of disease
Description: The technical compounds were formulated at 200 ppm in 10 vol. acetone plus 90 vol. Triton X water (deionized water 99.99 wt. % +0.01 wt. Triton X100), giving a “formulated test compound.” The compounds were tested for ability to control plant diseases at the whole plant level in a 1-day protectant test (IDP). Formulated test compounds were applied to plants using a turn table sprayer fitted with two opposing air atomization nozzles which delivered approximately 1500 L/ha of spray volume. Plants were inoculated with spores of the fungus the next day, then incubated in an environment conducive to disease development. Disease severity was evaluated 4 to 19 days later, depending on the speed of disease development. Cucumber Anthracnose (causal agent Colletotricum lagenarium; Bayer code COLLLA): Cucumber plants (variety Bush Champion) were grown from seed in a soilless peat-based potting mixture (Metromix) until the first true leaf was 20-80% expanded. Each pot contained 1 seedling. These plants were sprayed until wet with the formulated test compound at a rate of 200 ppm. On the following day, the leaves were inoculated with an aqueous spore suspension of Colletotricum lagenarium and the plants were kept in high humidity for one day to permit spores to germinate and infect the leaf. The plants were then transferred to a growth chamber until disease developed on untreated control plants. The following table presents the activity of typical compounds of the present invention when evaluated in these experiments. The effectiveness of the test compounds in controlling disease was determined by assessing the severity of disease on treated plants, then converting the severity to percent control based on the level of disease on untreated, inoculated plants.

Puccinia triticina = assay: Leaf Rust of Wheat 1-day protectant test (PUCCRT); format: in vivo; settings: topical, 24 h, one-day protectant test, 200 ppm application rate, wheat plants (variety Yuma), read-out: PUCCRT control of disease
Description: The technical compounds were formulated at 200 ppm in 10 vol. acetone plus 90 vol. Triton X water (deionized water 99.99 wt. % +0.01 wt. Triton X100), giving a “formulated test compound.” The compounds were tested for ability to control plant diseases at the whole plant level in a 1-day protectant test (IDP). Formulated test compounds were applied to plants using a turn table sprayer fitted with two opposing air atomization nozzles which delivered approximately 1500 L/ha of spray volume. Plants were inoculated with spores of the fungus the next day, then incubated in an environment conducive to disease development. Disease severity was evaluated 4 to 19 days later, depending on the speed of disease development. […] Each pot contained 3-8 seedlings. These plants were sprayed until wet with the formulated test compounds at a rate of 200 ppm. On the following day, the leaves were inoculated with an aqueous spore suspension of Puccinia triticina and the plants were kept in high humidity overnight to permit spores to germinate and infect the leaf. The plants were then transferred to a greenhouse until disease developed on untreated control plants. The following table presents the activity of typical compounds of the present invention when evaluated in these experiments. The effectiveness of the test compounds in controlling disease was determined by assessing the severity of disease on treated plants, then converting the severity to percent control based on the level of disease on untreated, inoculated plants.

Compound	pest or weed control at 200 ppm (Cochliobolus sativus) [%]	pest or weed control at 200 ppm (Septoria tritici) [%]	pest or weed control at 200 ppm (Pyricularia oryzae) [%]	pest or weed control at 200 ppm (Leptosphaeria nodorum) [%]	pest or weed control at 200 ppm (Colletotricum lagenarium) [%]	pest or weed control at 200 ppm (Puccinia triticina) [%]	melting point [°C]
CC(C)(C)Nc1cc(-c2ncnc(Nc3cccc(Cl)c3)n2)ccn1 [Compound 5, 4-[2-(tert-butylamino)pyridin-4-yl]-N-(3-chlorophenyl)-1,3,5-triazin-2-amine]	90 to 100	90 to 100	90 to 100	50 to 89	50 to 89	90 to 100	–
CC(COCc1ccccc1)Nc1cc(-c2ncnc(Nc3cccc(Cl)c3)n2)ccn1 (stereo not drawn) [Compound 6, N-(3-chlorophenyl)-4-{2-[(2-(benzyloxy)-1-methylethyl)amino]pyridin-4-yl}-1,3,5-triazin-2-amine]	50 to 89	90 to 100	< 20	50 to 89	< 20	90 to 100	79 to 80
COCC(C)Nc1cc(-c2ncnc(Nc3ccccc3Cl)n2)ccn1 (stereo not drawn) [Compound 3, N-(2-chlorophenyl)-4-{2-[(2-methoxy-1-methylethyl)amino]pyridin-4-yl}-1,3,5-triazin-2-amine]	90 to 100	21 to 49	50 to 89	21 to 49	< 20	50 to 89	139 to 140
COCC(C)Nc1cc(-c2ncnc(Nc3ccc(Cl)cc3)n2)ccn1 (stereo not drawn) [Compound 4, N-(4-chlorophenyl)-4-{2-[(2-methoxy-1-methylethyl)amino]pyridin-4-yl}-1,3,5-triazin-2-amine]	50 to 89	50 to 89	< 20	50 to 89	< 20	50 to 89	198 to 200
Clc1cccc(Nc2ncnc(-c3ccnc(N4CCCCC4)c3)n2)c1 [Compound 7, N-(3-chlorophenyl)-4-(2-piperidin-1-ylpyridin-4-yl)-1,3,5-triazin-2-amine]	21 to 49	50 to 89	< 20	50 to 89	< 20	21 to 49	168 to 169
COC[C@H](C)Nc1cc(-c2ncnc(Nc3cccc(Cl)c3)n2)ccn1 [Compound 2, N-(3-chlorophenyl)-4-(2-{[(1S)-2-methoxy-1-methylethyl]amino}pyridin-4-yl)-1,3,5-triazin-2-amine]	90 to 100	90 to 100	90 to 100	90 to 100	90 to 100	90 to 100	152 to 156
Clc1ccc(Nc2ncnc(-c3ccnc(N4CCCCC4)c3)n2)cc1 [Compound 8, N-(4-chlorophenyl)-4-(2-piperidin-1-ylpyridin-4-yl)-1,3,5-triazin-2-amine]	< 20	50 to 89	< 20	50 to 89	< 20	< 20	–
CC1COC(=O)N1c1cc(-c2ncnc(Nc3cccc(Cl)c3)n2)ccn1 (stereo not drawn) [Compound 9]	90 to 100	50 to 89	90 to 100	50 to 89	21 to 49	90 to 100	–
COCC(C)Nc1cc(-c2ncnc(Nc3cccc(Cl)c3)n2)ccn1 (stereo not drawn) [Compound 1, N-(3-chlorophenyl)-4-{2-[(2-methoxy-1-methylethyl)amino]pyridin-4-yl}-1,3,5-triazin-2-amine]	90 to 100	50 to 89	90 to 100	90 to 100	90 to 100	90 to 100	149 to 151
